Among the data in ChEMBL document CHEMBL1147947, “In vitro activity of novel dual action MDR anthranilamide modulators with inhibitory activity on CYP-450 (Part 2)” (Bioorg Med Chem, 2007) are GI50, IC50 and Activity values, retold here.

The term GI50 denotes the concentration giving 50% growth inhibition. A higher GI50 goes with less potent growth inhibition. The term IC50 denotes the concentration that inhibits the measured activity by half. Low readings indicate greater potency in that assay, high ones weaker potency in that assay.

Assay [1] is described as follows: Growth inhibition of human CEM/VLB500 cells after 3 days by resazurin assay. In kind it is functional. The conditions noted are these: CEM/VLB500, 72 h. For orientation: The colour change of resazurin is a common sign of viable cells or microbes.
The target in another assay is Cytochrome P450 2C9 (Homo sapiens, UniProt P11712). Description: Inhibition of human CYP2C9 expressed in insect microsome after 45 mins. It counts as ADME, microsomes.
Sequence of Cytochrome P450 2C9 (P11712 whole entry): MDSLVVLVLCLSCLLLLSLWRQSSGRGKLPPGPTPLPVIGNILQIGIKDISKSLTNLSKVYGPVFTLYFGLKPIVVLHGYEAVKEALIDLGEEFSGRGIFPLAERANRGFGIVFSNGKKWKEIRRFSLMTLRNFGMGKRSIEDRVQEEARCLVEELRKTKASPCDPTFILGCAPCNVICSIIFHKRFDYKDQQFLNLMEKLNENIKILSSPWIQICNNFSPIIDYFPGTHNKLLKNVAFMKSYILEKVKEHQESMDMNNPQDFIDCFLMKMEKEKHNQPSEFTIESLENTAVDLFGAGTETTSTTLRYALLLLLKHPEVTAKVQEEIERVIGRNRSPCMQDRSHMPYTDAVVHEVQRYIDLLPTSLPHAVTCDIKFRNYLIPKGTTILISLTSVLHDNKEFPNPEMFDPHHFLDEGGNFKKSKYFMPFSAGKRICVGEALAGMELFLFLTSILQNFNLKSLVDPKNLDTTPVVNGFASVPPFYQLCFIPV
The next assay concerns the target T1, Cytochrome P450 2B6 (Homo sapiens, UniProt P20813).
T1 sequence (P20813 whole entry): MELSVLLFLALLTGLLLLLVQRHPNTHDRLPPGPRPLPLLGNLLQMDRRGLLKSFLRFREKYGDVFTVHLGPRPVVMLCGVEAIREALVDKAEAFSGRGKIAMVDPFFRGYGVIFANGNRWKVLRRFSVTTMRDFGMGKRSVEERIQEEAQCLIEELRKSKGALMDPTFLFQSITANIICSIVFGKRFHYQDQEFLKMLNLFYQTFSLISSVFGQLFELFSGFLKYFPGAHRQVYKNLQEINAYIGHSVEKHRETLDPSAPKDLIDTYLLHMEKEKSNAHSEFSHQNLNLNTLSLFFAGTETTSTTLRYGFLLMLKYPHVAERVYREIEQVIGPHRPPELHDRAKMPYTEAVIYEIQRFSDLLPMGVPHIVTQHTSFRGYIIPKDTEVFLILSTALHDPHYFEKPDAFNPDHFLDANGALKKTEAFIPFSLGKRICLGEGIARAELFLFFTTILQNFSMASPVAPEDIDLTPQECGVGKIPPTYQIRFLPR
Description: Inhibition of human CYP2B6 expressed in insect microsome after 30 mins. It counts as ADME, microsomes.

The next assay has as its target Cytochrome P450 2E1 (Homo sapiens, UniProt P05181). Description: Inhibition of human CYP2E1 expressed in insect microsome after 45 mins. It counts as ADME, microsomes.
The target of a further assay is T2, Cytochrome P450 2C8 (Homo sapiens, UniProt P10632).
T2 sequence (P10632 whole entry): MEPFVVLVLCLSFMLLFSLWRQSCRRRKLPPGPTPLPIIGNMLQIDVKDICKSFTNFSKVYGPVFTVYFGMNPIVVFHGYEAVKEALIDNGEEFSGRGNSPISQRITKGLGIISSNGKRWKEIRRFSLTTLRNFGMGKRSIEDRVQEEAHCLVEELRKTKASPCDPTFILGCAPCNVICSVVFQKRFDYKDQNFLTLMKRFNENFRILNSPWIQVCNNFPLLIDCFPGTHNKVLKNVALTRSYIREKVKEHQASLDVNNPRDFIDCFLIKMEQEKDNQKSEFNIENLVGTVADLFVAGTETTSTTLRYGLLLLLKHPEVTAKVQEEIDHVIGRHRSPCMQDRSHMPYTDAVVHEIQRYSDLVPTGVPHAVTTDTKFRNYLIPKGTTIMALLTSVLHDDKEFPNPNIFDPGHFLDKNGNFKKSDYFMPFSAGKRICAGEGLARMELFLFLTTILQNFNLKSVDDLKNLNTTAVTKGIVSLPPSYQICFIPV
Description: Inhibition of human CYP2C8 expressed in insect microsome after 30 mins. It counts as ADME, microsomes.

The target of a further assay is Cytochrome P450 2D6 (Homo sapiens, UniProt P10635). Description: Inhibition of human CYP2D6 expressed in insect microsome after 30 mins. It counts as ADME, microsomes.
Sequence of Cytochrome P450 2D6 (P10635 whole entry): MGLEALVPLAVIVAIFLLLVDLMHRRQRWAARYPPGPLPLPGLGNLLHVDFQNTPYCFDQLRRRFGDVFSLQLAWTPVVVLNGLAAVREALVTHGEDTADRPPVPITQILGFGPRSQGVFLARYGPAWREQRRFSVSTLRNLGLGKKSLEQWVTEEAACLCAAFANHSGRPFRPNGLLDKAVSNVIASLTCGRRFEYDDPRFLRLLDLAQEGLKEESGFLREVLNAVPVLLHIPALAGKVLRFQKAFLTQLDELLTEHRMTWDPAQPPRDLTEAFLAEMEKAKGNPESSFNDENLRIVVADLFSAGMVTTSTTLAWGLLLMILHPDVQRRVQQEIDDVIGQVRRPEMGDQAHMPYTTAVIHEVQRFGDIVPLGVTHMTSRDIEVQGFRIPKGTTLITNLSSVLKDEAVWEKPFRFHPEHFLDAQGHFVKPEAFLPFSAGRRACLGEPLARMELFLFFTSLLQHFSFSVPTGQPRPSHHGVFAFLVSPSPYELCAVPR
The next assay concerns the target T3, Cytochrome P450 2A6 (Homo sapiens, UniProt P11509).
T3 sequence (P11509 whole entry): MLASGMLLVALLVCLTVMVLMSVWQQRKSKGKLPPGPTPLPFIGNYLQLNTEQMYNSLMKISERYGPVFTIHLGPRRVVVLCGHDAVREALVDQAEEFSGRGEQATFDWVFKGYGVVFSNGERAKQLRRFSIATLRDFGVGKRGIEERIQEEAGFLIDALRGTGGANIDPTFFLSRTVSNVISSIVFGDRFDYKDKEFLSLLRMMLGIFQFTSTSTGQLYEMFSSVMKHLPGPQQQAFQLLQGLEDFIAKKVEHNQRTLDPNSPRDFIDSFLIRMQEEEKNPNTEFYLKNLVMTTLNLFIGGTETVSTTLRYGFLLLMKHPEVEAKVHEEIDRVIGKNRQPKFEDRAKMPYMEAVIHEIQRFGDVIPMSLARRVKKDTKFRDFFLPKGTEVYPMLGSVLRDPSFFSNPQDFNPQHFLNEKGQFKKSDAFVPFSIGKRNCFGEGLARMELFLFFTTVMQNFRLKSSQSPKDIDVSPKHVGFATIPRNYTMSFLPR
Description: Inhibition of human CYP2A6 expressed in insect microsome after 15 mins. It counts as ADME, microsomes.

The next assay addresses Cytochrome P450 2C19 (Homo sapiens, UniProt P33261). Description: Inhibition of human CYP2C19 expressed in insect microsome after 30 mins. In kind it is ADME, microsomes.
The target of a further assay is Cytochrome P450 3A4 (Homo sapiens, UniProt P08684). Description: Inhibition of human CYP3A4 expressed in insect microsome using 7-benzyloxy-4-trifluoromethylcoumarin substrate after 30 mins. It counts as ADME, microsomes.
Sequence of Cytochrome P450 3A4 (P08684 whole entry): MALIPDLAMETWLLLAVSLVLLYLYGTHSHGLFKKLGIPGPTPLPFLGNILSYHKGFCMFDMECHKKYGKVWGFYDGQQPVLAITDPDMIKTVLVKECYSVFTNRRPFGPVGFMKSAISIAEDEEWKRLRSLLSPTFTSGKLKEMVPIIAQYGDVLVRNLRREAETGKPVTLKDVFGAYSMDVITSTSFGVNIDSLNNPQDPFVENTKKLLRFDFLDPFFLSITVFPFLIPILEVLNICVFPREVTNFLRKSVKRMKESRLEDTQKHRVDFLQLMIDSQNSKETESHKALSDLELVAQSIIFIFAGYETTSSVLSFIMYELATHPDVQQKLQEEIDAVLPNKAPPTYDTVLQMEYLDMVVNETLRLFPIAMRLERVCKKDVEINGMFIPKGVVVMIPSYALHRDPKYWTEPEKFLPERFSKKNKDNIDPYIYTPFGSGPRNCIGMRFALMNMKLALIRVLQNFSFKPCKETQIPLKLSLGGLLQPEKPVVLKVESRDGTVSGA
The next assay deals with T4, Cytochrome P450 1A2 (Homo sapiens, UniProt P05177).
T4 sequence (P05177 whole entry): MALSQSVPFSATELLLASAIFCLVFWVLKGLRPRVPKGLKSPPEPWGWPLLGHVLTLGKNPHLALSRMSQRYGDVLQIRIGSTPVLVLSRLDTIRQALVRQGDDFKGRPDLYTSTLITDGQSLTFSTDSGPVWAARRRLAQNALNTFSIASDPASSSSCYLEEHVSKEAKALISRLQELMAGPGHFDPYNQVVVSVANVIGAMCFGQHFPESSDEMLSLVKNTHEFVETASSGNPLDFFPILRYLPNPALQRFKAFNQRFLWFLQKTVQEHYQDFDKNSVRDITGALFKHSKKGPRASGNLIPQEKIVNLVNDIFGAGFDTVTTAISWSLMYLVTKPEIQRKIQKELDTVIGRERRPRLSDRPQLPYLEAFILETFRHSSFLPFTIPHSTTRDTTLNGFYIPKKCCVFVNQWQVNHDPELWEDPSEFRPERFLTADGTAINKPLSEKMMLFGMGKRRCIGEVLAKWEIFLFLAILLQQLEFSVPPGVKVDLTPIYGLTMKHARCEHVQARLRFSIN
Description: Inhibition of human CYP1A2 expressed in insect microsome after 15 mins. It counts as ADME, microsomes.

A further assay relates to CEM/VLB500. Description: Growth inhibition of human CEM/VLB500 cells at 1 uM after 3 days by resazurin assay. In kind it is functional, cell-based.

Structures are written as SMILES. Active and inactive are the calls of the source. The rule behind the calls is not given here.

Sequence of Cytochrome P450 2C19 (P33261 whole entry): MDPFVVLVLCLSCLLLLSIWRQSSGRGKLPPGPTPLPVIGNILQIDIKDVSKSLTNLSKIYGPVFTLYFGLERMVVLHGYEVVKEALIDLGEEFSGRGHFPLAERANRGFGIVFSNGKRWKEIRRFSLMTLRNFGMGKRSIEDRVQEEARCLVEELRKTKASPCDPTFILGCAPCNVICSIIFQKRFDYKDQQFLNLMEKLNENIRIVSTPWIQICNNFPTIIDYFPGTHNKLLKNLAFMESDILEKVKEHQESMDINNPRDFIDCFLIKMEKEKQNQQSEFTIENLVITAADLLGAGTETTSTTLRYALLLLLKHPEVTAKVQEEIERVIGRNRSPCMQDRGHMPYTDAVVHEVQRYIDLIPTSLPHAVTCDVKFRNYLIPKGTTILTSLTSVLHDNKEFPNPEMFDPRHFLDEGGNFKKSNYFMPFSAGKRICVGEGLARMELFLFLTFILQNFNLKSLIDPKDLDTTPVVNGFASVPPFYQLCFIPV
Sequence of Cytochrome P450 2E1 (P05181 whole entry): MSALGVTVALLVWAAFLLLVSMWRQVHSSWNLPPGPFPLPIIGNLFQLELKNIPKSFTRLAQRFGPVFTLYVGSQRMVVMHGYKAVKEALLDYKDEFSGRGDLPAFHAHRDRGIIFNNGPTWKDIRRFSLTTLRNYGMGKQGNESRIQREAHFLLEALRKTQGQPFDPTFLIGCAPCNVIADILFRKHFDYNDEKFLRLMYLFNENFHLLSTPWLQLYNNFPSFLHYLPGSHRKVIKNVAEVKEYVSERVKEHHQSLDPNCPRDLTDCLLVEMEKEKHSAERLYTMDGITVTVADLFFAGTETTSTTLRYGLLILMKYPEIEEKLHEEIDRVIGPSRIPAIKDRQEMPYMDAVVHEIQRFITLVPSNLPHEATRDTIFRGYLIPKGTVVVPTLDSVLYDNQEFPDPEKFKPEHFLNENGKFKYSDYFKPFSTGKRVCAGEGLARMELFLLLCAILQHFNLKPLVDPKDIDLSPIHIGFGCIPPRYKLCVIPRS

In turn, `COc1ccc(CCN(C)CCC[C@@](C#N)(c2ccc(OC)c(OC)c2)C(C)C)cc1OC` gave a GI50 in [1] of more than 15 µM.
As for `COc1cc2c(cc1OC)CN(CCc1ccc(NC(=O)c3cc(OC)c(OC)cc3NC(=O)c3cnc4ccccc4c3)cc1)CC2`, the half-inhibitory concentration (IC50) against Cytochrome P450 2C9 is 7.1 µM; against Cytochrome P450 2B6 it was more than 100 µM; against Cytochrome P450 2E1, more than 100 µM; against Cytochrome P450 2C8 it was 45.3 µM; at Cytochrome P450 2D6 it was 100 µM; at Cytochrome P450 2A6, more than 100 µM. Moreover, the half-inhibitory concentration (IC50) on Cytochrome P450 2C19 was more than 10 µM. Further, in assay [1], the GI50 was 13.5 µM.
As for `COc1ccc(CCN(C)CCNC(=O)c2ccccc2NC(=O)c2cnc3ccccc3c2)cc1OC`, the IC50 against Cytochrome P450 2C9 was 2.08 µM; against Cytochrome P450 3A4, 1.62 µM; against Cytochrome P450 1A2, more than 100 µM; against Cytochrome P450 2B6, more than 100 µM; against Cytochrome P450 2E1, more than 100 µM; on Cytochrome P450 2C8 it was 5.82 µM. Moreover, the IC50 was more than 100 µM at Cytochrome P450 2D6, more than 100 µM against Cytochrome P450 2A6 and 14.7 µM on Cytochrome P450 2C19.
Consider `COc1ccc(CCN2CCC[C@H]2CNC(=O)c2ccccc2NC(=O)c2cnc3ccccc3c2)cc1OC`, for which, in assay [1], the GI50 is more than 15 µM.
On to `O=C(Nc1ccccc1C(=O)N[C@@H]1CCCC[C@@H]1N1CCN(c2ccccc2)CC1)c1cnc2ccccc2c1` (racemic), for which, in assay [1], halving of growth (GI50) required 11.5 µM. In other words, the double-digit micromolar range.
With `COc1ccc(CCN2CCC[C@@H]2CNC(=O)c2ccccc2NC(=O)c2cnc3ccccc3c2)cc1OC`, in [1], the GI50 is more than 15 µM.
As for `COc1ccc(CN2CCN(c3ccc(NC(=O)c4ccccc4NC(=O)c4cnc5ccccc5c4)cc3)CC2)cc1OC`, the concentration for half-maximal inhibition (IC50) against Cytochrome P450 2C9 is more than 10 µM; against Cytochrome P450 3A4 it was 20.2 µM; against Cytochrome P450 1A2, more than 100 µM; at Cytochrome P450 2B6, more than 100 µM; against Cytochrome P450 2E1 it was more than 100 µM; on Cytochrome P450 2C8, 13.3 µM. The half-maximal inhibitory concentration (IC50) at Cytochrome P450 2D6 is more than 100 µM; on Cytochrome P450 2A6, more than 100 µM; on Cytochrome P450 2C19, 23 µM. The molecule also yielded a concentration for 50% growth inhibition (GI50) in [1] of more than 15 µM.
Turning to `COc1ccc(CN2CCN(c3ccc(NC(=O)c4cc(OC)c(OC)cc4NC(=O)c4cnc5ccccc5c4)cc3)CC2)cc1OC`, the outcome in the assay with CEM/VLB500 was inactive. The IC50 against Cytochrome P450 2C9 was 0.0968 µM; on Cytochrome P450 3A4, 0.195 µM; against Cytochrome P450 1A2, 6.68 µM; against Cytochrome P450 2B6 it was 100 µM; against Cytochrome P450 2C8, 1.08 µM; against Cytochrome P450 2D6 it was 17.3 µM. At Cytochrome P450 2C19, this molecule came in with an IC50 of 0.393 µM. The concentration for 50% growth inhibition (GI50) in assay [1] was not below 15 µM.
